Target: T1, NUAK2 (Homo sapiens, UniProt Q9H093)
T1 construct: purchased Thermo Fisher Scientific (Life Technologies) SelectScreen
Experiment: SelectScreen LanthaScreen
Assay type: binding
Conditions: 1 µM
Protocol: The in vitro kinase selectivity of NU5455 was determined using the SelectScreen Broad Assay Panel (Thermo Fisher Scientific) involving activity and binding assays (Supplemental Table 1). […] Class IA PI3Ks were measured using the p85α subunit.
Kinase [ATP] % Assay Kinase [ATP] % Assay Kinase [ATP] % Assay Kinase [ATP] % Assay […]
NEK2 Km app 17.8 Z CSNK1G3 (CK1 gamma 3) Km app 4.2 Z NUAK2 n/a 1.0 L KIT T670E n/a -2.8 L […]
SGK (SGK1) Km app 8.5 Z MAP4K2 (GCK) Km app 2.7 Z TLK2 n/a -0.3 L STK38 (NDR) n/a -5.9 L
MERTK (cMER) Km app 8.3 Z CDK2/cyclin A Km app 2.7 Z TGFBR1 (ALK5) n/a -0.4 L MATK (HYL) Km app -6.3 Z
FYN Km app 8.3 Z EPHA1 Km app 2.7 Z CLK3 Km app -0.5 Z ABL1 E255K Km app -6.6 Z
TEC n/a 8.1 L CDK2/cyclin E1 n/a 2.7 L MAP3K14 (NIK) n/a -0.5 L STK17A (DRAK1) n/a -6.6 L
KIT V654A n/a 8.1 L TESK2 n/a 2.7 L AKT3 (PKB gamma) Km app -0.5 Z JAK2 JH1 JH2 Km app -6.7 Z
ROS1 Km app 8.0 Z SPHK1 Km app 2.7 A MAP3K9 (MLK1) Km app -0.5 Z PRKACB (PRKAC beta) n/a -6.8 L
FGFR3 K650E Km app 7.9 Z AMPK A2/B1/G1 Km app 2.6 Z IKBKB (IKK beta) Km app -0.6 Z PDGFRA (PDGFR alpha) Km app -6.8 Z
RAF1 (cRAF) Y340D Y341D 100 7.9 Z DYRK3 Km app 2.6 Z CAMK2A (CaMKII alpha) Km app -0.6 Z NEK9 Km app -7.2 Z
PI4KA (PI4K alpha) 10 7.8 A CSNK1D (CK1 delta) Km app 2.6 Z PRKCB1 (PKC beta I) Km app -0.7 Z PDK1 Km app -7.3 Z
HIPK2 Km app 7.8 Z ACVR2A n/a 2.5 L TTK n/a -0.7 L RPS6KB1 (p70S6K) Km app -7.8 Z […]

T1 sequence (Q9H093 whole entry): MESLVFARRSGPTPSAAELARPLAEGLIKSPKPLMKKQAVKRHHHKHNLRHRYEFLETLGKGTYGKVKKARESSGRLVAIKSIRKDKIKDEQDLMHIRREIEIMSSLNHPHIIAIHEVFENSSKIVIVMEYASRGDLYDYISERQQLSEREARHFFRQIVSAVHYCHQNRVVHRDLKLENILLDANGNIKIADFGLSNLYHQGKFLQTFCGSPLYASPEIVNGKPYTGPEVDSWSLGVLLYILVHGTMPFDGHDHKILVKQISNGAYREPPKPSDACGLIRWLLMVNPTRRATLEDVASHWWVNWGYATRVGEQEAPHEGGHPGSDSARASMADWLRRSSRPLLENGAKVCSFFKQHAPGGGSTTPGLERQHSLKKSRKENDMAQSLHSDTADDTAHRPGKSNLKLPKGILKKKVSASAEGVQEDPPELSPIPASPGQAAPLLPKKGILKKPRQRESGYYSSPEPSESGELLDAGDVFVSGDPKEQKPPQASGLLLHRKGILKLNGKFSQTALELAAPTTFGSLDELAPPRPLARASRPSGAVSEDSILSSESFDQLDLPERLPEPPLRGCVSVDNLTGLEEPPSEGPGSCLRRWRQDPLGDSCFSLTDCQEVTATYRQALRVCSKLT

## CN(C(=O)CN1CCOCC1)c1ccc2sc3c(-c4cccc5c(=O)cc(N6CC7CCC(C6)O7)oc45)cccc3c2c1 [NU5455]
  % displacement: 1.0%

Reference: article PMC6934184, “Selective DNA-PKcs inhibition extends the therapeutic index of localized radiotherapy and chemotherapy” (The Journal of Clinical Investigation, 2019)
